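Compound exposure: 48 hours, 5 concentrations, 96-well plates. The concentration for 50% growth inhibition is given as GI50.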 Calls of active or inactive are those of the source. Cut-off read from the data, not from the text of the source: active = GI50 up to about 1.1 µM and inactive = higher.
Key:
Assay in all cases: DTP human tumour cell line panel, 48 h
A498 = test system: A498
A549 = test system: A549
ACHN = test system: ACHN
BT-549 = test system: BT-549
CAKI-1 = test system: CAKI-1
CCRF-CEM = test system: CCRF-CEM
COLO 205 = test system: COLO 205
DU-145 = test system: DU-145
EKVX = test system: EKVX
HCC 2998 = test system: HCC 2998
HCT-15 = test system: HCT-15
HOP-62 = test system: HOP-62
HOP-92 = test system: HOP-92
HT-29 = test system: HT-29
Hs-578T = test system: Hs-578T
IGROV-1 = test system: IGROV-1
K562 = test system: K562
KM12 = test system: KM12
LOX IMVI = test system: LOX IMVI
M14 = test system: M14
MCF7 = test system: MCF7
MDA-MB-231 = test system: MDA-MB-231
MOLT-4 = test system: MOLT-4
Malme-3M = test system: Malme-3M
NCI-H226 = test system: NCI-H226
NCI-H23 = test system: NCI-H23
NCI-H522 = test system: NCI-H522
NCI/ADR-RES = test system: NCI/ADR-RES
OVCAR-4 = test system: OVCAR-4
OVCAR-5 = test system: OVCAR-5
OVCAR-8 = test system: OVCAR-8
RPMI-8226 = test system: RPMI-8226
SF-268 = test system: SF-268
SF-539 = test system: SF-539
SK-MEL-28 = test system: SK-MEL-28
SK-MEL-2 = test system: SK-MEL-2
SK-OV-3 = test system: SK-OV-3
SN12C = test system: SN12C
SNB-19 = test system: SNB-19
SNB-75 = test system: SNB-75
SR = test system: SR
SW-620 = test system: SW-620
T47D = test system: T47D
TK-10 = test system: TK-10
U-251 = test system: U-251
UACC-257 = test system: UACC-257
UACC-62 = test system: UACC-62
UO-31 = test system: UO-31
786-0 = test system: 786-0
HCT-116 = test system: HCT-116
HL-60 = test system: HL-60
MDA-MB-435 = test system: MDA-MB-435
NCI-H460 = test system: NCI-H460
OVCAR-3 = test system: OVCAR-3
PC-3 = test system: PC-3
SF-295 = test system: SF-295
SK-MEL-5 = test system: SK-MEL-5
RXF 393 = test system: RXF 393

In the case of `Oc1cc(-c2ccc(Cl)cc2)nc2ncccc12`, the GI50 (A498) is reported as 68.1 µM (inactive), the GI50 (A549) is reported as 54.2 µM (inactive) and the GI50 (ACHN) is reported as 79.4 µM (inactive). The GI50 (BT-549) was > 100 µM (inactive), the GI50 (CAKI-1) was 61.9 µM (inactive) and the GI50 (CCRF-CEM) was 41.7 µM (inactive). For the same compound, the GI50 (COLO 205) was 21.7 µM (inactive), the GI50 (DU-145) was > 100 µM (inactive) and the GI50 (EKVX) was 52.2 µM (inactive). The GI50 (HCC 2998) was 69 µM (inactive), the GI50 (HCT-15) was 27.4 µM and the GI50 (HOP-62) was 55 µM (inactive). The GI50 (HOP-92) was 41.2 µM (inactive), the GI50 (HT-29) was 34.9 µM (inactive) and the GI50 (Hs-578T) was 56.2 µM (inactive). The GI50 (IGROV-1) was 44.3 µM (inactive), the GI50 (K562) was 11.5 µM (inactive) and the GI50 (KM12) was 14.9 µM (inactive). The GI50 (LOX IMVI) was 49 µM (inactive), the GI50 (M14) was 40.5 µM (inactive) and the GI50 (MCF7) was 16.6 µM (inactive). The GI50 (MDA-MB-231) was 64.6 µM (inactive), the GI50 (MOLT-4) was 40.2 µM (inactive) and the GI50 (Malme-3M) was 28.6 µM (inactive). The GI50 (NCI-H226) was 44.6 µM (inactive), the GI50 (NCI-H23) was 86.5 µM (inactive) and the GI50 (NCI-H522) was 40.3 µM (inactive). For the same compound, the GI50 (NCI/ADR-RES) was 36 µM (inactive), the GI50 (OVCAR-4) was 56.6 µM (inactive) and the GI50 (OVCAR-5) was > 100 µM (inactive). For the same compound, the GI50 (OVCAR-8) was 61.9 µM (inactive), the GI50 (RPMI-8226) was 24.3 µM (inactive) and the GI50 (SF-268) was 53.2 µM (inactive). The GI50 (SF-539) was 45.5 µM (inactive), the GI50 (SK-MEL-28) was 57.1 µM (inactive) and the GI50 (SK-MEL-2) was 31 µM (inactive). For the same compound, the GI50 (SK-OV-3) was 46 µM (inactive), the GI50 (SN12C) was 75.9 µM (inactive) and the GI50 (SNB-19) was 64.1 µM (inactive). The GI50 (SNB-75) was 24.5 µM (inactive), the GI50 (SR) was 5.56 µM (inactive) and the GI50 (SW-620) was 31.1 µM (inactive). The GI50 (T47D) was 61.7 µM (inactive), the GI50 (TK-10) was 94.4 µM (inactive) and the GI50 (U-251) was 36.6 µM (inactive). The GI50 (UACC-257) was 53.5 µM (inactive), the GI50 (UACC-62) was 28.9 µM (inactive) and the GI50 (UO-31) was 33 µM (inactive).
With `COC(=O)CN(CC1O[C@@H]2OC(C)(C)O[C@@H]2C1N=[N+]=[N-])C(=O)OCc1ccccc1` (some centres not stated) the GI50 (786-0) was > 100 µM (inactive), the GI50 (A498) was > 100 µM (inactive) and the GI50 (A549) was > 100 µM (inactive). For the same compound, the GI50 (ACHN) was > 100 µM (inactive), the GI50 (BT-549) was > 100 µM (inactive) and the GI50 (CAKI-1) was > 100 µM (inactive). The GI50 (COLO 205) was > 100 µM (inactive), the GI50 (DU-145) was > 100 µM (inactive) and the GI50 (EKVX) was > 100 µM (inactive). The GI50 (HCC 2998) was > 100 µM (inactive), the GI50 (HCT-116) was > 100 µM (inactive) and the GI50 (HCT-15) was over 100 µM. The GI50 (HL-60) was 69.3 µM (inactive), the GI50 (HOP-62) was > 100 µM (inactive) and the GI50 (HOP-92) was > 100 µM (inactive). The GI50 (HT-29) was > 100 µM (inactive), the GI50 (Hs-578T) was 16 µM (inactive) and the GI50 (IGROV-1) was > 100 µM (inactive). The GI50 (K562) was 57 µM (inactive), the GI50 (KM12) was > 100 µM (inactive) and the GI50 (LOX IMVI) was > 100 µM (inactive). The GI50 (M14) was > 100 µM (inactive), the GI50 (MCF7) was > 100 µM (inactive) and the GI50 (MDA-MB-231) was > 100 µM (inactive). The GI50 (MDA-MB-435) was > 100 µM (inactive), the GI50 (MOLT-4) was 51.4 µM (inactive) and the GI50 (NCI-H226) was > 100 µM (inactive). The GI50 (NCI-H460) was > 100 µM (inactive), the GI50 (NCI-H522) was > 100 µM (inactive) and the GI50 (NCI/ADR-RES) was 30.9 µM (inactive). The GI50 (OVCAR-3) was > 100 µM (inactive), the GI50 (OVCAR-4) was > 100 µM (inactive) and the GI50 (OVCAR-5) was > 100 µM (inactive). For the same compound, the GI50 (OVCAR-8) was > 100 µM (inactive), the GI50 (PC-3) was > 100 µM (inactive) and the GI50 (RPMI-8226) was > 100 µM (inactive). The GI50 (SF-268) was > 100 µM (inactive), the GI50 (SF-295) was > 100 µM (inactive) and the GI50 (SF-539) was > 100 µM (inactive). The GI50 (SK-MEL-28) was > 100 µM (inactive), the GI50 (SK-MEL-2) was > 100 µM (inactive) and the GI50 (SK-MEL-5) was > 100 µM (inactive). The GI50 (SK-OV-3) was > 100 µM (inactive), the GI50 (SN12C) was > 100 µM (inactive) and the GI50 (SNB-19) was > 100 µM (inactive). The GI50 (SNB-75) was > 100 µM (inactive), the GI50 (SR) was > 100 µM (inactive) and the GI50 (SW-620) was > 100 µM (inactive). The GI50 (T47D) was > 100 µM (inactive), the GI50 (TK-10) was > 100 µM (inactive) and the GI50 (U-251) was > 100 µM (inactive). For the same compound, the GI50 (UACC-257) was > 100 µM (inactive), the GI50 (UACC-62) was > 100 µM (inactive) and the GI50 (UO-31) was > 100 µM (inactive).
For `O=c1c(Cl)cc2nc3ccccc3sc-2c1Cl`, the GI50 (786-0) was 21.2 µM (inactive), the GI50 (A498) was 33.9 µM (inactive) and the GI50 (A549) was 18.7 µM (inactive). For the same compound, the GI50 (ACHN) was 15.9 µM (inactive), the GI50 (BT-549) was 11.7 µM (inactive) and the GI50 (CAKI-1) was 22.1 µM (inactive). For the same compound, the GI50 (CCRF-CEM) was 4.67 µM (inactive), the GI50 (COLO 205) was 18.5 µM (inactive) and the GI50 (DU-145) was 12.9 µM (inactive). The GI50 (EKVX) was 3.22 µM (inactive), the GI50 (HCC 2998) was 14.1 µM (inactive) and the GI50 (HCT-116) was 16.2 µM (inactive). For the same compound, the GI50 (HCT-15) was 14.7 µM, the GI50 (HL-60) was 10.6 µM (inactive) and the GI50 (HOP-62) was 26.1 µM (inactive). The GI50 (HT-29) was 23.2 µM (inactive), the GI50 (Hs-578T) was 22 µM (inactive) and the GI50 (IGROV-1) was 13.6 µM (inactive). For the same compound, the GI50 (K562) was 6.85 µM (inactive), the GI50 (KM12) was 17.6 µM (inactive) and the GI50 (LOX IMVI) was 12 µM (inactive). For the same compound, the GI50 (M14) was 11.7 µM (inactive), the GI50 (MCF7) was 14.4 µM (inactive) and the GI50 (MDA-MB-231) was 5.78 µM (inactive). The GI50 (MDA-MB-435) was 2.82 µM (inactive), the GI50 (MOLT-4) was 3.61 µM (inactive) and the GI50 (Malme-3M) was 10 µM (inactive). The GI50 (NCI-H226) was 16.5 µM (inactive), the GI50 (NCI-H23) was 11 µM (inactive) and the GI50 (NCI-H460) was 18 µM (inactive). For the same compound, the GI50 (NCI-H522) was 12.4 µM (inactive), the GI50 (NCI/ADR-RES) was 21.5 µM (inactive) and the GI50 (OVCAR-3) was 1.98 µM (inactive). The GI50 (OVCAR-4) was 13.2 µM (inactive), the GI50 (OVCAR-5) was 24.7 µM (inactive) and the GI50 (RPMI-8226) was 4.25 µM (inactive). For the same compound, the GI50 (RXF 393) was 18.5 µM (inactive), the GI50 (SF-268) was 14.9 µM (inactive) and the GI50 (SF-295) was 16.9 µM (inactive). For the same compound, the GI50 (SF-539) was 16.7 µM (inactive), the GI50 (SK-MEL-28) was 18.1 µM (inactive) and the GI50 (SK-MEL-2) was 13.7 µM (inactive). For the same compound, the GI50 (SK-MEL-5) was 2.92 µM (inactive), the GI50 (SK-OV-3) was 21 µM (inactive) and the GI50 (SN12C) was 17 µM (inactive). For the same compound, the GI50 (SNB-19) was 17 µM (inactive), the GI50 (SNB-75) was 16.2 µM (inactive) and the GI50 (SR) was 4.57 µM (inactive). The GI50 (SW-620) was 12.5 µM (inactive), the GI50 (T47D) was 5 µM (inactive) and the GI50 (TK-10) was 17.9 µM (inactive). The GI50 (U-251) was 17.6 µM (inactive), the GI50 (UACC-257) was 2.75 µM (inactive) and the GI50 (UACC-62) was 11.5 µM (inactive). For the same compound, the GI50 (UO-31) was 15.3 µM (inactive).

Reference: ChEMBL document CHEMBL1201862, “PubChem BioAssay data set” (2004)
